Source: patent publication US6255502A, “Pharmaceutical composition containing acid addition salt of basic drug” (Farmarc Nederland B.V., priority 1996, dated 2001)
Converted amounts (≈) assume the structure as drawn.

What was measured:
[1] = cited from earlier work
[2] = providing an appropriate pH gradient existed; cited from earlier work
[3] = Partition coefficient and apparent partition coefficient, n-octanol / phosphate buffer pH 7.4 at 25° C.; assay type: physicochemical; settings: n-octanol / phosphate buffer pH 7.4, 25° C.; for Partition Coefficient: P = Co/Cw; for Apparent Partition Coefficient: Papp=P/(1+10^pKa-pH)
Method: Melting points (peak onset temperature) were determined by Differential Scanning Calorimetry using a Perkin Elmer DSC 7. The saturation solubilities were determined by shaking an excess of the compound in phosphate buffer pH 7.4 at 25° C. […] Pharmaceutical Press p70]:
where P=Co /Cw and where Co is the concentration of the drug in n-octanol and Cw is the concentration of the drug in phosphate buffer pH 7.4 at 25° C. Drug concentrations were determined by HPLC.

[4] = dogs, sustained-release oral formulation study; cited from earlier work
[5] = Deliquescence of precipitate on standing; assay type: physicochemical
[6] = Aqueous solubility (stated in the Examples); assay type: physicochemical; settings: aqueous solution
[7] = Thermal decomposition seen in differential scanning calorimetry; assay type: physicochemical; settings: DSC from 50 to 200° C.
Method: Salbutamol base (1.2007 g; 5.02 mmol) was dissolved in ethanol (100 mL) with vigorous stirring. Glycodeoxycholic acid (2.4601 g; water content: 4.25% w/w; 5.25 mmol~5% molar excess) was added and dissolved with stirring. A clear, colourless solution was obtained. The ethanol was removed by vacuum rotary-evaporation to give a viscous, yellow residue. Ethyl acetate (200 mL) was added to the residue and the mixture heated in a water bath with constant agitation. As the yellow residue dissolved, a white precipitate formed. Agitation was continued until the yellow residue disappeared. The ethyl acetate solution was cooled in an ice bath. […] Analysis by differential scanning calorimetry from 50 to 200° C. gave no significant thermal event. Slow decomposition was evident after 110° C.

[8] = by forming a complex with a fatty acid; cited from earlier work

Q: Which “effect on rat nasal absorption of insulin” value (shortened to “effect”) [1] does the source give for CCCCCCCC(=O)[O-].[Na+] [sodium caprylate] here?
A: The value was “promoting effect”.

Q: For CCCCCCCCCC(=O)[O-].[Na+] [sodium caprate], which “effect” value [1] is on record?
A: The value was “promoting effect”.

Q: For CCCCCCCC/C=C\CCCCCCCC(=O)O [oleic acid], which “Transport of cations across an iso-Pr myristate membrane” value [2] is on record?
A: Its value is “facilitated”.

Q: For CCCCCCCCCCCC(=O)O [lauric acid], which “Transport of cations across an iso-Pr myristate membrane” value [2] is on record?
A: Its value is “facilitated”.

Q: For CCCCCCCCCCCC(=O)[O-].[Na+] [sodium laurate], which “effect” value [1] is on record?
A: The value was “promoting effect”.

Q: What does the source list for CC(C)(C)NCC(O)c1ccc(O)c(CO)c1 (stereo not drawn) [Salbutamol base]?
A: Partition Coefficient [3]: 0,42; Apparent Partition Coefficient [3]: 0.005222

Q: For CC(C)NCC(O)COc1cccc2ccccc12 (stereo not drawn) [propranolol laurate], which bioavailability [4] is on record?
A: The bioavailability was “An increase in bioavailability was observed”.

Q: Which Deliquescence [5] does the source give for COc1ccc2c3c1O[C@H]1[C@@H](O)C=C[C@H]4[C@@H](C2)N(C)CC[C@@]341 [Codeine caprate, codeine caprate] here?
A: Its Deliquescence is “very deliquescent”.

Q: What does the source list for CC(C)(C)NCC(O)c1ccc(O)c(CO)c1 (stereo not drawn) [Salbutamol glycodeoxycholate, salbutamol glycodeoxycholate]?
A: Aqueous solubility [6]: greater than 8.35 mg/mL; Partition Coefficient [3]: 0,61; Apparent Partition Coefficient [3]: 0,007584; Slow decomposition evident after [7]: > 110 °C

Q: With CC(C)NCC(O)COc1cccc2ccccc12 (stereo not drawn) [propranolol] as the compound, how does the “Penetration across the stratum corneum” value [8] read?
A: Its value is “a significant proportion of propranolol will penetrate across the stratum corneum”.

Q: Which solubility ([6]; water) does the source give for CC(C)(C)NCC(O)c1ccc(O)c(CO)c1 (stereo not drawn) [Salbutamol caprate] here?
A: The solubility was 4760 µg/mL (≈ 19.9 mM).

Q: What about the “Partition Coefficient” value [3] of the same compound?
A: The value was 0,54.

Q: And the “Apparent Partition Coefficient” value [3]?
A: Its value is 0,006714.

Q: For CNS(=O)(=O)Cc1ccc2[nH]cc(CCN(C)C)c2c1 [Sumatriptan base], which “Partition Coefficient” value [3] is on record?
A: Its value is 0,69.

Q: And the “Apparent Partition Coefficient” value [3]?
A: The value was 0,004039.

Q: Which “Partition Coefficient” value [3] does the source give for CNS(=O)(=O)Cc1ccc2[nH]cc(CCN(C)C)c2c1 [Sumatriptan caprate, sumatriptan caprate] here?
A: The value was 1,54.

Q: What about the “Apparent Partition Coefficient” value [3] of the same compound?
A: Its value is 0.009015.
